Results: US20120178738A1, “DIBENZO [B,F] [1,4]OXAZAPINE COMPOUNDS” (ARYX THERAPEUTICS, INC., priority 2007, published 2012)
Read-outs that look alike come from different tables or passages of the source.

Columns and labels:
[1] = molecular target: T1, 5-HT2A receptor (Rattus norvegicus, UniProt P14842); assay: cell-based
T1 construct: Eight strips of tissue (0.5 cm long) were cut. and were mounted in 10 ml organ baths; tissue Charles River Laboratories; host or cells: rat aorta strips, endothelium removed
T1 sequence (P14842 whole entry): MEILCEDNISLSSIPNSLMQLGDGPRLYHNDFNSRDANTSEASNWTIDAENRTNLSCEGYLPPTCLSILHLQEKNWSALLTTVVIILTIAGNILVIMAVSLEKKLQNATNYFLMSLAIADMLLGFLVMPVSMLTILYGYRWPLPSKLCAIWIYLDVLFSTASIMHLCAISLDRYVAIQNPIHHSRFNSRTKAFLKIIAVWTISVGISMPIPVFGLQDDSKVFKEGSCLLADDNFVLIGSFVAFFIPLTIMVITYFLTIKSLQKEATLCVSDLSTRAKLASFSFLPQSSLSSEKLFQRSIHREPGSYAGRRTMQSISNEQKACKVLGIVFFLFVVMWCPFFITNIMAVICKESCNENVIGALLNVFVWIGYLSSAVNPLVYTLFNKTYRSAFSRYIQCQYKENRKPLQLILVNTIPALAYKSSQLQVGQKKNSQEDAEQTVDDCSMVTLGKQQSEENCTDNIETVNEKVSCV
Method in brief: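 Endothelium-denuded aortic strips from male Sprague Dawley rats held at 37° C in carbogen-aerated Krebs, pH 7.4, under 2 g resting tension. Contraction recorded as tension change, expressed as % of maximal 5-HT response; agonist EC50 from Parker–Waud fit, antagonist pKB/pA2 from concentration-ratios.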

[2] = molecular target: T2, human D2s dopamine receptors (Homo sapiens, UniProt P14416); assay: hD2S receptor radioligand binding ([3H]spiperone); settings: for Ki: pKi reported on a scale of 1 through 5
T2 construct: expressed in transfected cells; host or cells: Chinese hamster ovary cells (membranes)
T2 sequence (P14416 1-414 isoform P14416-2): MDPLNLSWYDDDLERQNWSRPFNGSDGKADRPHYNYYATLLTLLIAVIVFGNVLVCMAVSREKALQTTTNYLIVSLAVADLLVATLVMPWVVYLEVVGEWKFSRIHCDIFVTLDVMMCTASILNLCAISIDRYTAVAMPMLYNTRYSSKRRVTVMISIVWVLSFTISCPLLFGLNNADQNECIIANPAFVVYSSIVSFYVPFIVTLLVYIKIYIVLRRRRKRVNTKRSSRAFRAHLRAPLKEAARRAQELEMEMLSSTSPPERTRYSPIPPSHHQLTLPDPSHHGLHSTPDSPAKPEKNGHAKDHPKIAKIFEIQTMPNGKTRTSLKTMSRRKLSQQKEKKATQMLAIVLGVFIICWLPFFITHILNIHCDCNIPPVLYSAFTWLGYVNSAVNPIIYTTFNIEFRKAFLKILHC
Method in brief: (§1)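 Competition binding on receptor-bearing membranes or cells: one fixed radioligand concentration at equilibrium, with a range of unlabelled test compound concentrations. Bound and free radioligand separated by filtration. Nonspecific binding defined with a known blocker, and displacement curves corrected for it.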

[3] = molecular target: T3, human D2L dopamine receptors (Homo sapiens, UniProt P14416); assay: hD2L receptor radioligand binding ([3H]spiperone); settings: for Ki: pKi reported on a scale of 1 through 5, read-out: D2L (pKi) (converted)
T3 construct: expressed in transfected cells; host or cells: insect Sf9 cells (membranes)
T3 sequence (P14416 whole entry): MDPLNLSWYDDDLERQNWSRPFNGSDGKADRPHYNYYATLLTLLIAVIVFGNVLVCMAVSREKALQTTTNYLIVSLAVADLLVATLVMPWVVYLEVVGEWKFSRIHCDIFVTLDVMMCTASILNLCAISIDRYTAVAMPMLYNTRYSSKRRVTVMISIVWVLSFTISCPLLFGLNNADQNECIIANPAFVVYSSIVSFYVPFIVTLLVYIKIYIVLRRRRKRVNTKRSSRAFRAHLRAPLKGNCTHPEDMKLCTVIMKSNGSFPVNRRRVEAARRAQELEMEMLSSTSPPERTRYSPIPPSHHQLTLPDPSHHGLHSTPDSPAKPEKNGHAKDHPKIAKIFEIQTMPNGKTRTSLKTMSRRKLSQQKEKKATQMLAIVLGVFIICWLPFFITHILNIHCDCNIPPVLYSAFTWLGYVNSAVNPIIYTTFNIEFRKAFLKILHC
Method in brief: as §1

[4] = molecular target: T4, human 5HT1A receptors (Homo sapiens, UniProt P08908); assay: h5-HT1A receptor radioligand binding ([3H]8OH-DPAT); settings: for Ki: pKi reported on a scale of 1 through 5; for binding to 5-HT1A: in words
T4 construct: expressed in transfected cells; host or cells: Chinese hamster ovary cells (membranes)
T4 sequence (P08908 1-422): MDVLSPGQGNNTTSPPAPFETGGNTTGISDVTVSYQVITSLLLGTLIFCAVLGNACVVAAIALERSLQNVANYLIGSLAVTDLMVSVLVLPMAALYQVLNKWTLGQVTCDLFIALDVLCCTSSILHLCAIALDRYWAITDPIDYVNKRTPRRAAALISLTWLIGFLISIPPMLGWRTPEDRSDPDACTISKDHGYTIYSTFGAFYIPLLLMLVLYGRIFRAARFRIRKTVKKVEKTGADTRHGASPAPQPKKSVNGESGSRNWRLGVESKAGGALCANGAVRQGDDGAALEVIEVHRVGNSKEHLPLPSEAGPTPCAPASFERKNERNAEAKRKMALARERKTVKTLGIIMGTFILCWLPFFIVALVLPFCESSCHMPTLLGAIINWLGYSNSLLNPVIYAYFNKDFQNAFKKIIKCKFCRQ
Method in brief: as §1

[5] = molecular target: T5, human M3 receptors (Homo sapiens, UniProt P20309); assay: hM3 receptor radioligand binding ([3H]NMS); settings: for Ki: pKi reported on a scale of 1 through 5, read-out: M3 (pKi) (converted); for affinity to M3 receptors: in words
T5 construct: expressed in transfected cells; host or cells: Chinese hamster ovary cells (membranes)
T5 sequence (P20309 whole entry): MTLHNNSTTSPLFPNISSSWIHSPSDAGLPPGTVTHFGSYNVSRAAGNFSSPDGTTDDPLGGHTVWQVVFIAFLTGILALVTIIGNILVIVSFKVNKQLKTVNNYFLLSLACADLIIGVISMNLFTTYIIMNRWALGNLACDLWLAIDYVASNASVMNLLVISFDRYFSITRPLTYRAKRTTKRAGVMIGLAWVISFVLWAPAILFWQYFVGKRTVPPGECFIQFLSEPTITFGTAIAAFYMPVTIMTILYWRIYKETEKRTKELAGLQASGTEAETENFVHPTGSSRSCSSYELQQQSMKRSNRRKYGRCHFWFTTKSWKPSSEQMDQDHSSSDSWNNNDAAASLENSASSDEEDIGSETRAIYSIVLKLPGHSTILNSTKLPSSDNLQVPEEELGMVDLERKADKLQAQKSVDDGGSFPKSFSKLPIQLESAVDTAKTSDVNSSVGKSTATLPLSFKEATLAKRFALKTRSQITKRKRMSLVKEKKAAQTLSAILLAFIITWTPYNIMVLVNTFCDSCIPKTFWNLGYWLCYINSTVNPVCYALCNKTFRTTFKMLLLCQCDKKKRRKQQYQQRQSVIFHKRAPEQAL
Method in brief: as §1

[6] = molecular target: T6, human H1 receptors (Homo sapiens, UniProt P35367); assay: hH1 receptor radioligand binding ([3H]Pyrilamine); settings: for Ki: pKi reported on a scale of 1 through 5; for binding to H1: in words
T6 construct: expressed in transfected cells; host or cells: Chinese hamster ovary cells (membranes)
T6 sequence (P35367 whole entry): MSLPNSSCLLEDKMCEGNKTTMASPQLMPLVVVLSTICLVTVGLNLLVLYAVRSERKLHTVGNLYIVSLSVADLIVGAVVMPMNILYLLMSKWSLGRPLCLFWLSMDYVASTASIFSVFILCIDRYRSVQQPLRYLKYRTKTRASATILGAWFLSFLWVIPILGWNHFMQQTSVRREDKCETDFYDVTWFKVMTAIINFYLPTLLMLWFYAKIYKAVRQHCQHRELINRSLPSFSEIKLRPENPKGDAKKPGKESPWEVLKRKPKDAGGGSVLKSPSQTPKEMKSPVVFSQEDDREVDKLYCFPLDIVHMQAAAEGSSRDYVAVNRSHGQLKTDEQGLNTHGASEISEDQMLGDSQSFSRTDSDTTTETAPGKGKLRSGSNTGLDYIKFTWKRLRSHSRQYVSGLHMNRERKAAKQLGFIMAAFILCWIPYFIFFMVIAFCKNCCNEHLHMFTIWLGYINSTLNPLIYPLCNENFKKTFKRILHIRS
Method in brief: as §1

[7] = molecular target: T7, human M1 receptors (Homo sapiens, UniProt P11229); assay: hM1 receptor radioligand binding ([3H]NMS); settings: for Ki: pKi reported on a scale of 1 through 5; for affinity to M1 receptors: in words
T7 construct: expressed in transfected cells; host or cells: Chinese hamster ovary cells (membranes)
T7 sequence (P11229 1-460): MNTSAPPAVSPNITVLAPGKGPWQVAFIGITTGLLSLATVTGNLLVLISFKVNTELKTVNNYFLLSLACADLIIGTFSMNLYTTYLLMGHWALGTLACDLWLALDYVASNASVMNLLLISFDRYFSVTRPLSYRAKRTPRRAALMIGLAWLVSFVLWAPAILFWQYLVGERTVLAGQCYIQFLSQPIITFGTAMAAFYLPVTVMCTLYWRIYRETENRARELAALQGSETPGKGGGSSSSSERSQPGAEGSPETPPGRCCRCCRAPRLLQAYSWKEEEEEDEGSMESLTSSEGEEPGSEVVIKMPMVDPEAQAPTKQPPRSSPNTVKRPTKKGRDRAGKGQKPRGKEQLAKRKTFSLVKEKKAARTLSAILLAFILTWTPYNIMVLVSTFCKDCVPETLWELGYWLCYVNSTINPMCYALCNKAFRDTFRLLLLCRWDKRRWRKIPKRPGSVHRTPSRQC
Method in brief: as §1

[8] = read-out: 5HT2A (pKb) (converted)
[9] = relative to clozapine, in words

Structure (SMILES): O=C(C[C@H]1CN(C2=Nc3cc(Cl)ccc3Oc3ccccc32)CCN1)OC1CCOCC1 [DV, (S,E)-tetrahydro-2H-pyran-4-yl 2-(4-(8-chlorodibenzo[b,f][1,4]oxazepin-11-yl)piperazin-2-yl)acetate]
- Kb [1, 8]: 0.00316 to 0.00977 µM
- Ki [2]: 0.631 to 2.45 µM
- Ki [3]: 2.51 to 9.77 µM
- Ki [4]: 0.01 to 0.0977 µM
- Ki [5]: > 10 µM
- Ki [6]: 1 to 9.77 µM
- Ki [7]: > 10 µM

Structure (SMILES): CCOC(=O)CC1CN(C2=Nc3ccc(F)cc3Oc3ccccc32)CCN1 (stereo not shown) [J, (E)-ethyl 2-(4-(7-fluorodibenzo[b,f][1,4]oxazepin-11-yl)piperazin-2-yl)acetate]
- Kb [1, 8]: 0.0316 to 0.0977 µM
- Ki [2]: 2.51 to 9.77 µM
- Ki [3]: 2.51 to 9.77 µM
- Ki [4]: 0.1 to 0.977 µM
- Ki [5]: > 10 µM
- Ki [6]: 0.1 to 0.977 µM
- Ki [7]: > 10 µM

Structure (SMILES): O=C(C[C@H]1CN(C2=Nc3cc(Cl)ccc3Oc3ccccc32)CCN1)OC1CCCC1 [DR, (S,E)-cyclopentyl 2-(4-(8-chlorodibenzo[b,f][1,4]oxazepin-11-yl)piperazin-2-yl)acetate]
- Kb [1, 8]: 0.01 to 0.0309 µM
- Ki [2]: 0.631 to 2.45 µM
- Ki [3]: 0.631 to 2.45 µM
- Ki [4]: 0.01 to 0.0977 µM
- Ki [5]: > 10 µM
- Ki [6]: 1 to 9.77 µM
- Ki [7]: 1.26 to 2.45 µM

Structure (SMILES): CC(C)OC(=O)CC1CN(C2=Nc3cc(Cl)ccc3Oc3ccccc32)CCN1 (stereo not shown) [L, (E)-isopropyl 2-(4-(8-chlorodibenzo[b,f][1,4]oxazepin-11-yl)piperazin-2-yl)acetate]
- Kb [1, 8]: 0.01 to 0.0309 µM
- Ki [2]: 2.51 to 9.77 µM
- Ki [3]: 0.631 to 2.45 µM
- Ki [4]: 0.1 to 0.977 µM
- Ki [5]: > 10 µM
- Ki [6]: 0.1 to 0.977 µM
- Ki [7]: > 10 µM

Structure (SMILES): O=C(C[C@H]1CN(C2=Nc3cc(Cl)ccc3Oc3ccccc32)CCN1)O[C@H]1CCOC1 [EQ, (S)-tetrahydrofuran-3-yl 2-((S)-4-((E)-8-chlorodibenzo[b,f][1,4]oxazepin-11-yl)piperazin-2-yl)acetate]
- Kb [1, 8]: 0.00316 to 0.00977 µM
- Ki [2]: 0.631 to 2.45 µM
- Ki [4]: 0.01 to 0.0977 µM
- Ki [6]: 0.01 to 0.0977 µM
- Ki [7]: 5.01 to 9.77 µM

Structure (SMILES): CCOC(=O)CC1CN(C2=Nc3cc(Cl)ccc3Oc3ccccc32)CCN1 (stereo not shown) [A, (E)-ethyl 2-(4-(8-chlorodibenzo[b,f][1,4]oxazepin-11-yl)piperazin-2-yl)acetate]
- Kb [1, 8]: 0.01 to 0.0309 µM
- Ki [2]: 2.51 to 9.77 µM
- Ki [3]: 0.631 to 2.45 µM
- Ki [4]: 0.1 to 0.977 µM
- Ki [5]: > 10 µM
- Ki [6]: 0.1 to 0.977 µM
- Ki [7]: 5.01 to 9.77 µM

Structure (SMILES): CCOC(=O)C[C@H]1CN(C2=Nc3cc(Cl)ccc3Oc3ccccc32)CCN1 [Compound K, (S,E)-ethyl 2-(4-(8-chlorodibenzo[b,f][1,4]oxazepin-11-yl)piperazin-2-yl)acetate]
- Kb ([1]; rat aorta, Schild plot vs 5-HT, read-out: pA2, antagonist for 5-HT2A receptors (converted)): 0.00316 µM
- Kb [1, 8]: 0.00316 to 0.00977 µM
- IC50 binding affinity for D2S receptors ([2]; in words): low micromolar
- binds to D2S dopamine receptors ([2]; in words): Binds
- Ki [2]: 0.631 to 2.45 µM
- affinity for the D2S receptor compared with clozapine [2, 9]: comparable
- IC50 binding affinity for D2L receptors ([3]; in words): low micromolar
- binds to D2L dopamine receptors ([3]; in words): Binds
- Ki [3]: 0.631 to 2.45 µM
- affinity for the D2L receptor compared with clozapine [3, 9]: comparable
- binding to 5-HT1A [4]: bind
- Ki [4]: 0.1 to 0.977 µM
- affinity for the 5-HT1A receptors, fold higher than clozapine ([4]; relative to clozapine): 4 fold
- affinity to M3 receptors [5]: very low affinity
- Ki [5]: > 10 µM
- binding to H1 [6]: bind
- Ki [6]: 0.1 to 0.977 µM
- affinity for the H1 receptors, fold lower than clozapine ([6]; relative to clozapine): 69 fold
- affinity to M1 receptors [7]: very low affinity
- Ki [7]: > 10 µM

Structure (SMILES): O=C(O)C[C@H]1CN(C2=Nc3cc(Cl)ccc3Oc3ccccc32)CCN1 [Compound Q, (S,E)-2-(4-(8-chlorodibenzo[b,f][1,4]oxazepin-11-yl)piperazin-2-yl)acetic acid]
- Kb [1, 8]: 0.01 to 0.0309 µM
- affinity for the 5-HT2A receptors, fold lower than Compound K ([1]; relative to Compound K): 8 fold
- binds to D2S dopamine receptors ([2]; in words): not
- Ki [2]: > 10 µM
- binds to D2L dopamine receptors ([3]; in words): not
- Ki [3]: > 10 µM
- binding to 5-HT1A [4]: bind
- Ki [4]: 0.1 to 0.977 µM
- affinity to M3 receptors [5]: very low affinity
- Ki [5]: > 10 µM
- binding to H1 [6]: bind
- Ki [6]: 0.1 to 0.977 µM
- affinity to M1 receptors [7]: very low affinity
- Ki [7]: > 10 µM

Structure (SMILES): CCC(C)OC(=O)C[C@H]1CN(C2=Nc3cc(Cl)ccc3Oc3ccccc32)CCN1C (stereo partly drawn) [DY, sec-butyl 2-((S)-4-((E)-8-chlorodibenzo[b,f][1,4]oxazepin-11-yl)-1-methylpiperazin-2-yl)acetate]
- Kb [1, 8]: 0.01 to 0.0309 µM
- Ki [2]: 2.51 to 9.77 µM
- Ki [4]: 1 to 9.77 µM
- Ki [5]: > 10 µM
- Ki [6]: 0.01 to 0.0977 µM
- Ki [7]: > 10 µM

Structure (SMILES): CN1CCN(C2=Nc3cc(Cl)ccc3Oc3ccccc32)C[C@@H]1CC(=O)NCC(F)(F)C(F)(F)F [EU, (S,E)-2-(4-(8-chlorodibenzo[b,f][1,4]oxazepin-11-yl)-1-methylpiperazin-2-yl)-N-(2,2,3,3,3-pentafluoropropyl)acetamide]
- Kb ([1]; pKb reported on a scale of 1 through 5, read-out: 5HT2A (pKb) (converted)): > 0.1 µM
- Ki [2]: 2.51 to 9.77 µM
- Ki [4]: 1 to 9.77 µM
- Ki [6]: 0.1 to 0.977 µM
- Ki [7]: > 10 µM

Structure (SMILES): CCOC(=O)C[C@H]1CN(C2=Nc3cc(Cl)ccc3Oc3ccccc32)CCN1CCC(C)C [ER, (S,E)-ethyl 2-(4-(8-chlorodibenzo[b,f][1,4]oxazepin-11-yl)-1-isopentylpiperazin-2-yl)acetate]
- Kb [1, 8]: 0.0316 to 0.0977 µM
- Ki [2]: 2.51 to 9.77 µM
- Ki [4]: 1 to 9.77 µM
- Ki [6]: 0.1 to 0.977 µM
- Ki [7]: > 10 µM

Structure (SMILES): CC(C)OC(=O)CC1CN(C2=Nc3ccc(F)cc3Oc3ccccc32)CCN1 (stereo not shown) [M, (E)-isopropyl 2-(4-(7-fluorodibenzo[b,f][1,4]oxazepin-11-yl)piperazin-2-yl)acetate]
- Kb [1, 8]: 0.01 to 0.0309 µM
- Ki [2]: > 10 µM
- Ki [3]: 2.51 to 9.77 µM
- Ki [4]: 0.1 to 0.977 µM
- Ki [5]: > 10 µM
- Ki [6]: 1 to 9.77 µM
- Ki [7]: > 10 µM
